Test results taken from patent publication US20110054193A1, “STATIN PRODUCTION” (priority 2008, published 2011).

Tests used:
[1] = test system: Penicillium chrysogenum ΔhdfAΔ Pc18g05230; assay: Compactin sensitivity of Penicillium chrysogenum strains, growth in liquid media; assay type: cell-based; conditions: mutant for Pc18g05230 (SEQ ID NO 1); liquid media with different amounts of compactin; 2 days of growth at 25 C
Protocol: (§1) Fungal growth was performed in a mineral medium, containing (g/L): glucose (5); lactose (35); urea (4.5); (NH4)2SO4 (1.1); Na2SO4 (2.9); KH2PO4 (5.2); K2HPO4 (4.8) and 10 mL/L of a trace element solution containing (in g/l): citric acid (150); FeSO4.7H2O (15); MgSO4.7H2O (150); H3BO3 (0.0075); CuSO4.5H2O (0.24); CoSO4.7H2O (0.375); ZnSO4.7H2O (5); MnSO4.H2O (2.28); CaCl2.2H2O (0.99); pH before sterilization 6.5. Oxoid agar was added at 15 g/l to solidify the medium.
(§2) Compactin was maintained as a stock solution at 20 g/L in ethanol at −20 C.
The gene Pc18g05230 was identified as a HMGR encoding gene. In order to prevent the transcription of this gene a selection marker gene was inserted between the promoter and the open reading frame (ORF). To this end the promoter and the ORF were PCR amplified using the oligonucleotides SEQ ID NO 5 plus 6 and SEQ ID NO 7 plus 8, respectively (see FIG. 1). Phusion Hot-Start Polymerase (Finnzymes) was used to amplify the fragments. The fragments obtained are 1539 and 2514 base pairs (bp) in length (SEQ ID NO 31 and SEQ ID NO 32) and contain a 14 bp tail suitable for the so-called STABY cloning method (Eurogentec). From the standard STABY vector, pSTC1.3, two derivatives were obtained. One, pSTamdSL (SEQ ID NO 39), was used for cloning the PCR amplified promoter (SEQ ID NO 31). […]

[2] = test system: Penicillium chrysogenum ΔhdfAΔ Pc16g05060; assay: as above; assay type: cell-based; conditions: mutant for Pc16g05060 (SEQ ID NO 9); liquid media with different amounts of compactin; 2 days of growth at 25 C
Protocol: as §1, §2
The gene Pc16g05060 was identified as a HMGR encoding gene. In order to prevent the transcription of this gene a selection marker gene was inserted between the promoter and the open reading frame (ORF). To this end the promoter and the ORF were PCR amplified using the oligonucleotides SEQ ID NO 13 plus 14 and SEQ ID NO 15 plus 16, respectively (see FIG. 1). Phusion Hot-Start Polymerase (Finnzymes) was used to amplify the fragments. The fragments obtained are 1539 and 1514 base pairs (bp) in length (SEQ ID NO 35 and SEQ ID NO 36) and contain a 14 bp tail suitable for the so-called STABY cloning method (Eurogentec).
Spores of the Penicillium chrysogenum mutants for both HMGR encoding genes, Pc18g05230 (SEQ ID NO 1) and Pc16g05060 (SEQ ID NO 9), were inoculated in liquid media with different amounts of compactin.

`CC[C@H](C)C(=O)O[C@H]1CCC=C2C=C[C@H](C)[C@H](CC[C@@H]3C[C@@H](O)CC(=O)O3)[C@H]21` [Compactin, compactin] was tested, and the “compactin sensitivity of the mutant, in words” value [1] was “increased compactin sensitivity” and the “compactin sensitivity of the mutant, in words” value [2] was “increased compactin sensitivity”.
